According to PubChem BioAssay (NCI):
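Grown in 96-well plates, cells were treated for 48 hours with each compound at five concentrations. Insufficient inhibition: endpoint recorded as highest concentration tested. Here, GI50 denotes the concentration required for 50% inhibition of growth. TGI: total growth inhibition.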

Columns and labels:
Assay in all cases: DTP human tumour cell line panel, 48 h
[1] = test system: MCF7 breast
[2] = test system: MDA-N
[3] = test system: LXFL 529 NSCLC
[4] = test system: HOP-18 NSCLC
[5] = test system: M19-MEL melanoma
[6] = test system: DLD-1 colon
[7] = test system: KM20L2 colon
[8] = test system: DMS 114 small cell lung
[9] = test system: RXF-631 renal

| Structure (SMILES) | GI50 [1] | TGI [1] | TGI [3] | TGI [4] | TGI [5] | TGI [6] | TGI [7] | TGI [8] | further results |
| --- | --- | --- | --- | --- | --- | --- | --- | --- | --- |
| C[C@@H]1C/C=C\C(=O)O[C@H](/C=C/C#C/C=C/C(C)(C)[C@@H](O)c2cccc(O)c2Br)[C@@H](C)/C=C/[C@H](C)C[C@H](OC(N)=O)C1 | 0.0613 µM | 15.5 µM | – | – | – | – | – | – | – |
| O=C(Cc1ccc(/C=C/C(=O)c2ncc[nH]2)cc1)Nc1ccc(C(F)(F)F)cc1 | 0.851 µM | 4.31 µM | – | – | – | – | – | – | – |
| O=C(O)Cn1ccnc1[N+](=O)[O-] | – | > 100 µM | – | – | – | – | – | – | TGI [2]: > 100 µM |
| COc1ccc(CC2=NCCc3cc(OC)c(OC)cc32)cc1Br | – | – | > 100 µM | > 100 µM | > 100 µM | > 100 µM | 99.3 µM | 48.3 µM | – |
| COc1ccc(C2NCCc3c2[nH]c2ccccc32)cc1 (centres undefined) | – | – | > 100 µM | > 100 µM | > 100 µM | > 100 µM | > 100 µM | – | TGI [9]: > 100 µM |
| COc1ccc2[nH]c(-c3ccccc3)cc2c1 | 86.6 µM | > 100 µM | – | – | – | – | – | – | – |
| CCCCCCCCCCCCCCCCS(=O)(=O)c1ccc(NN)cc1 | – | > 10 µM | – | – | – | – | – | – | TGI [2]: > 10 µM |
| C=CC(=O)Nc1cccc(Nc2nc(Nc3ccc(OCCOC(F)F)cc3)ncc2F)c1 | 3 µM | 41.2 µM | – | – | – | – | – | – | – |
| COc1cc2cc(Oc3ccc(NC(=O)c4cccc5c4OCCO5)cc3)c(C)nc2cc1OC | 6.27 µM | > 100 µM | – | – | – | – | – | – | – |
| COc1ccc2[nH]c3c(=O)[nH]ncc3c2c1 | – | – | > 100 µM | > 100 µM | > 100 µM | > 100 µM | – | > 100 µM | – |
| COc1nc2c(c(O)c(C)c(=O)n2OC2OC(COC(C)=O)C(OC(C)=O)C(OC(C)=O)C2OC(C)=O)c(=O)n1C (centres undefined) | – | – | > 100 µM | – | > 100 µM | > 100 µM | > 100 µM | > 100 µM | TGI [9]: > 100 µM |
| Cc1cc(=O)oc2cc(OCCn3c(C)nn(-c4ccc(Cl)cc4)c3=O)ccc12 | 2.7 µM | > 100 µM | – | – | – | – | – | – | – |
| Fc1cc(-c2nnc3n2N=C(c2ccc(Cl)cc2Cl)CS3)c(Cl)cc1Cl | 31.3 µM | > 100 µM | – | – | – | – | – | – | – |
| COc1cc2nnn3c4ncccc4c(N=O)c3c2cc1OC | 0.327 µM | > 74.5 µM | – | – | – | – | – | – | – |
| O=C(Nc1cc(S(=O)(=O)c2ccc(Cl)cc2)ccc1Cl)c1cc(I)cc(I)c1O | 18.4 µM | 36.9 µM | – | – | – | – | – | – | – |
| O=C1C(c2ccccc2)=C(c2ccccc2)[C@H](c2ccccc2)[C@]1(Cc1nnn(-c2ccc([N+](=O)[O-])cc2)c1N1CCOCC1)c1ccccc1 | – | – | > 37.5 µM | > 37.5 µM | > 37.5 µM | > 37.5 µM | > 37.5 µM | > 37.5 µM | TGI [9]: > 37.5 µM |
| CC[P+]1(CC)CCCC1 | – | – | > 100 µM | > 100 µM | > 100 µM | > 100 µM | > 100 µM | > 100 µM | – |
| CC1(C)CC(=O)c2c(oc3cc(O)c(O)cc23)C1 | – | – | 91.8 µM | > 100 µM | > 100 µM | 53.9 µM | > 100 µM | 32.5 µM | TGI [9]: > 100 µM |

| Structure (SMILES) | GI50 [1] | TGI [1] | TGI [3] | TGI [4] | TGI [5] | TGI [6] | TGI [7] | TGI [8] | further results |
| --- | --- | --- | --- | --- | --- | --- | --- | --- | --- |
| O=C(O)[C@@H]1CCCC[C@@H]1C(=O)N(C1CCCCC1)C1CCCCC1 | – | – | > 100 µM | – | > 100 µM | > 100 µM | > 100 µM | > 100 µM | TGI [9]: > 100 µM |
| CC(C)(CO)N=Cc1ccccc1[O-].CC(C)(CO)N=Cc1ccccc1[O-].[Co+2] | 27.3 µM | > 100 µM | > 100 µM | > 100 µM | > 100 µM | > 100 µM | > 100 µM | > 100 µM | GI50 [3]: 19.2 µM; GI50 [4]: 29.4 µM; GI50 [5]: > 73.8 µM; GI50 [6]: 26.6 µM; GI50 [7]: 61.9 µM; GI50 [8]: 18.7 µM |
| COC(=O)C1(F)C(=O)NC(=O)NC1OC (centres undefined) | – | – | – | > 100 µM | > 100 µM | > 100 µM | > 100 µM | > 100 µM | – |
| Nc1ccn([C@@H]2C(F)=C(CO)[C@@H](O)[C@H]2O)c(=O)n1 | 0.362 µM | > 100 µM | – | – | – | – | – | – | – |
| CC12OC(C(=O)C13CCC3)C1C(=O)c3ccccc3C(=O)C12 (centres undefined) | > 100 µM | > 100 µM | – | – | – | – | – | – | – |
| O=[N+]([O-])C1C2C=CC(C2)[C@H]1c1ccc(Cl)cc1Cl (some centres undefined) | – | – | > 100 µM | – | > 100 µM | > 100 µM | – | – | – |
| C/C(=N/NC(=O)CC(=O)N(C(=O)c1ccccc1Cl)c1ccc(C)cc1)c1cc2ccccc2oc1=O | – | – | > 100 µM | > 100 µM | > 100 µM | > 100 µM | > 100 µM | > 100 µM | TGI [9]: > 100 µM |
| O=C(O)C1C(C(=O)O)C2(Cl)C(Cl)=C(Cl)C1(Cl)C2(Cl)Cl.[Cd] (centres undefined) | 17.3 µM | 35.9 µM | – | – | – | – | – | – | GI50 [2]: 8.5 µM; TGI [2]: 22.6 µM |
| COc1cc2cccc(N=Cc3c(Br)ccc(OC)c3OC(C)C)c2cc1OC | – | – | > 100 µM | – | > 100 µM | 82.2 µM | > 100 µM | 63.5 µM | – |
| NC(=O)c1cc(I)ccc1NC(=O)COc1ccccc1 | 0.279 µM | > 100 µM | – | – | – | – | – | – | – |
| C[N+](C)=c1nc(N2CCOCC2)ss1 | – | – | > 100 µM | – | – | – | – | – | – |
| CCc1cccc(CC)c1/C=C/c1cncc(C(=O)NC)c1 | 7.74 µM | > 25 µM | – | – | – | – | – | – | – |
| CCCCCCCCCC(=O)Oc1cccc2onc(C)c12 | – | – | > 100 µM | > 100 µM | > 100 µM | > 100 µM | > 100 µM | > 100 µM | TGI [9]: > 100 µM |
| COc1ccc(C2ONC3=NCCN32)cc1 (centres undefined) | 61.1 µM | > 100 µM | – | – | – | – | – | – | – |
| COc1cc(O)c(C(C)=O)c(O)c1 | – | > 100 µM | – | – | – | – | – | – | TGI [2]: > 100 µM |
| Nc1ncnc2c1c(-c1ccc(Oc3ccccc3)cc1)nn2C[C@@H]1SSC[C@@H]1O | 0.129 µM | 1.31 µM | – | – | – | – | – | – | – |
| CC1=C(C(=O)CC(=O)C(=O)NC2C3CC4CC(C3)CC2C4)Sc2ccccc2N1 (centres undefined) | – | – | > 100 µM | > 100 µM | > 100 µM | > 100 µM | > 100 µM | > 31.6 µM | – |
| c1ccc(CC(NCCNC(Cc2ccccc2)c2ccccc2)c2ccccc2)cc1 (centres undefined) | 0.311 µM | 1.14 µM | – | – | – | – | – | – | – |
